{"source": "patent US20260207535A1", "about": "“CRIBLAGE INHIBITEURS USP8” (COMMISSARIAT A L'ENERGIE ATOMIQUE ET AUX ENERGIES …, priority 2022, published 2026)", "key": {"POMC gene": {"system": "POMC gene", "experiment": "POMC encoding gene expression (quantitative RT-PCR, normalized to HPRT)", "assay_type": "cell-based, mouse", "conditions": "10, 20, 30 and 36 μM, 24 hours, vs DMSO", "method": "Each dot represents the amount of POMC encoding transcripts normalized to the amount of transcripts encoding the housekeeping gene HPRT and then compared to the DMSO control condition. Mean of technical triplicates with errors bars.\nACTH production depends on the activation of the proopiomelanocortin (POMC) gene encoding the ACTH precursor.\n3.75×10^5 AtT20 cells were seeded on polylysine-coated 6-well culture microplates on 2.4 mL complete medium. After 24 hours, cells were treated with stock compounds to a final DMSO concentration of 0.5%. After 24 hours of treatment, cells were briefly rinsed with 37° C. DPBS (no calcium, no magnesium modification), lysed with the LBP reagent from the NucleoSpin® RNA Plus kit (Macherey-Nagel 740984.50) and then frozen at −70° C. before continuing with the RNA extraction protocol as per manufacturer's instructions. 1 μg RNA was used to synthesize cDNA using the AffinityScript QPCR cDNA Synthesis Kit (Agilent #600559). qPCR reaction was performed using the primers against the mouse POMC gene (5′-CCTCCTGCTTCAGACCTCCATAGAT-3′ and 5′-GTCTCCAGAGAGGTCGAGTTT). […] Detection was done using the Brilliant II SYBR® Green QPCR Master Mix (Agilent #600828), and readings were done using a Stratagene Mx3005P equipment."}, "[1]": {"biological_target": "T1, Full length USP8 (USP8FL) (Homo sapiens, UniProt P40818)", "T1 construct": "purchased BostonBiochem E-520", "T1 sequence (P40818 1-1118)": "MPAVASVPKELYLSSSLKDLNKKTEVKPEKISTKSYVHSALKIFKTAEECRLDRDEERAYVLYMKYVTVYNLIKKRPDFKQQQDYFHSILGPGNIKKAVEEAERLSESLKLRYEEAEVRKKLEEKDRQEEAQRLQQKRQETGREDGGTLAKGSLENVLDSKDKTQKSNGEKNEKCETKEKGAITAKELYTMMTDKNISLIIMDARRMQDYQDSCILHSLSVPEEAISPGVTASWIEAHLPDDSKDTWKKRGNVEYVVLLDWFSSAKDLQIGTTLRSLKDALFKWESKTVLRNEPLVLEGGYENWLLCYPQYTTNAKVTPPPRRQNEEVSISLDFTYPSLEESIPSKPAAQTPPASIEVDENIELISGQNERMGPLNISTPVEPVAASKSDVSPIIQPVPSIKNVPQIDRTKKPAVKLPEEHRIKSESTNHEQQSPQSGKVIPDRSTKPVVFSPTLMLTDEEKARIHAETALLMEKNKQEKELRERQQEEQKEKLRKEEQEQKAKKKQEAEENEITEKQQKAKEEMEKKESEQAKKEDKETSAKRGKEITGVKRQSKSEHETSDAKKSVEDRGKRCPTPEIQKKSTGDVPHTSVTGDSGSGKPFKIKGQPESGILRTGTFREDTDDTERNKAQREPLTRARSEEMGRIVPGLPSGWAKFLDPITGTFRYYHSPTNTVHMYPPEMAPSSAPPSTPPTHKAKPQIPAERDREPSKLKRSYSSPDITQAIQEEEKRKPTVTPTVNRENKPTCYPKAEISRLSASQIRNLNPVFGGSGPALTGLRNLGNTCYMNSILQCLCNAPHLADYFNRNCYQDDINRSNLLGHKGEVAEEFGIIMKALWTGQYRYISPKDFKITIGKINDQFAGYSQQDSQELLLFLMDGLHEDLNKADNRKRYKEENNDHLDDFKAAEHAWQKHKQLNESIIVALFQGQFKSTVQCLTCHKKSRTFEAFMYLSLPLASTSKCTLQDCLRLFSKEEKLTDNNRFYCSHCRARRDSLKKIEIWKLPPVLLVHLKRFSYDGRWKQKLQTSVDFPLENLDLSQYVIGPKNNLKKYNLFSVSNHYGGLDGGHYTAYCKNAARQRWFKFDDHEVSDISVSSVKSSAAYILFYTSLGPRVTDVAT", "experiment": "USP8FL (full length USP8) enzymatic inhibition, Ub-Rhodamine 110 hydrolysis in L-cysteine buffer", "assay_type": "biochemical", "method": "USP8 FL (USP8 Full Length) was incubated at a concentration of 75 nM in the presence of Ub-Rho (UBIQUIGENT ref. 60-0117-050) at a final concentration of 0.1 μM, in conditions ensuring linearity of enzyme activity throughout the assay in a specific buffer. Compounds were added to the reaction mix at different doses just before the substrate. The enzymatic reaction kinetics were monitored by measuring fluorescence elicited by the hydrolysis of Ub-Rho over 30 min.\nIn this setup, an in-house purified catalytic domain of USP8 (USP8CD) was used at a concentration of 80 nM in the presence of the artificial substrate Ubiquitin-Rhodamine 110 (Ub-Rho) (ref: 60-0117-050 Ubiquigent) at a final concentration of 0.1 μM, in conditions ensuring linearity of enzyme activity throughout the assay incubation time. Enzymatic assay was performed in a Tris HCl buffer (40 mM Tris HCl pH 7.4, Ovalbumine 0.5 mg/ml, Cysteine HCl 5.5 mM). Compounds to be tested were added to the reaction mix and incubated with enzyme for 20 min, before the substrate. The enzymatic reaction kinetics were monitored by measuring fluorescence elicited by the hydrolysis of the peptidyl Ub-Rho over 30 minutes. The negative control was the solvent DMSO at 1%.\nFull length USP8 (USPBFL) (BostonBiochem ref. E-520) were used at a concentration of 75 nM in the presence of a ubiquitin substrate, i.e., the Ub-Rhodamine 110 (Ub-Rho) (Ubiquigent ref. 60-0117-050) at a final concentration of 0.1 μM. Enzymatic assays were performed as described for USP8-CD except that USP-FL was used at a concentration of 75 nM. The compounds were used at a final concentration of 0.1, 1, 5, 10, 50 and 100 μM in DMSO 0.5%. The USP8 catalytic activity was monitored both before adding the substrate (TO) and after twenty minutes of incubation at room temperature (Final Time TF). The enzymatic reaction kinetics were monitored by measuring fluorescence elicited by the hydrolysis of the Ub-Rho bound over 30 minutes."}}}
{"smiles": "Cc1cc(C(C#N)c2ccc(Cl)cc2)c(Cl)cc1NC(=O)c1cc(I)cc(I)c1O", "note": "(stereo not drawn) [Closantel, reference compound]", "values": [{"measurement": "POMC mRNA species (FIG. 8)", "setting": "POMC gene", "value": "strong decrease"}, {"measurement": "activity against USP8 (CD and FL)", "setting": "[1]; USP8 CD and FL", "value": "active"}, {"measurement": "IC50", "setting": "[1]; USP8 FL 75 nM, Ub-Rho 0.1 μM, L-cysteine buffer, read-out: USP8FL inhbition IC50 [μM] (CI: Confidence Interval)", "value": 12, "unit": "µM"}]}
